Residues, ends and D or L forms follow the SMILES beside them. *: point of attachment. Cbz = O=C(OCc1ccccc1)*; CH2F = FC*
How the values were obtained:
[1] = target: T1, Gasdermin-D (Mus musculus) (UniProt Q9D8T2); assay: Inhibition of GSDMD in LPS-induced mouse monocyte/macrophages assessed as inhibition of pyroptosis by fluorogenic liposome leakage assay; conditions: concentration not given here
T1 sequence (whole entry): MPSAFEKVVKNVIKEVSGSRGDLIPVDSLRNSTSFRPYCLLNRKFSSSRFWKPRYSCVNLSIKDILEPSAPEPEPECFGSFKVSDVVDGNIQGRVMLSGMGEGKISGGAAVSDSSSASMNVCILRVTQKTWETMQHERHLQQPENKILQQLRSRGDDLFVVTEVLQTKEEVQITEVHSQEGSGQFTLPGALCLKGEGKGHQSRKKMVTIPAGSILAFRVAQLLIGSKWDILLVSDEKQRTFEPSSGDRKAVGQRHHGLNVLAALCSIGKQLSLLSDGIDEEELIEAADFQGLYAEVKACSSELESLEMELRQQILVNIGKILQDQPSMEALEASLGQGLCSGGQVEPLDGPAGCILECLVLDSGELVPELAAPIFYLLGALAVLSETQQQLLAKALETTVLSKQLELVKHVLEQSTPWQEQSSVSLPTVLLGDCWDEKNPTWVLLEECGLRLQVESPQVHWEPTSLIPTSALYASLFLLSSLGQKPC

[2] = target: T2, Gasdermin-D (Homo sapiens) (UniProt P57764); assay: Inhibition of GSDMD in LPS-induced human monocyte/macrophages assessed as inhibition of pyroptosis by fluorogenic liposome leakage assay; conditions: concentration not given here
T2 sequence (whole entry): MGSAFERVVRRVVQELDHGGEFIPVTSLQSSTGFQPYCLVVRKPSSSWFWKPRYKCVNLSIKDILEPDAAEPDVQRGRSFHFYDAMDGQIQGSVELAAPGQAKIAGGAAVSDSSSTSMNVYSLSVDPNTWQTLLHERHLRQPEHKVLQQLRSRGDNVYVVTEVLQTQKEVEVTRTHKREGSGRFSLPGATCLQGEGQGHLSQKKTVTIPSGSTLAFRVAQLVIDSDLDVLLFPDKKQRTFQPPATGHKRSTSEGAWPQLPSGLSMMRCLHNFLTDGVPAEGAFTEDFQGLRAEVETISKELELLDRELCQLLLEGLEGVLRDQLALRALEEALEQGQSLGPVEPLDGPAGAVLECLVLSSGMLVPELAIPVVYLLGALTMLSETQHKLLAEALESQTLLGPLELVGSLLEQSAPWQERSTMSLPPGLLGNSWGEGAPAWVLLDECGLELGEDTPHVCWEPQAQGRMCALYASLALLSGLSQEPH

[3] = target: T2, Gasdermin-D (Homo sapiens); assay: Inhibition of human GSDMD expressed in HEK293 cells assessed as inhibition of GSDMD -induced lethality; type: cell-based
[4] = target: T1, Gasdermin-D (Mus musculus); assay: Inhibition of mouse GSDMD expressed in HEK293 cells assessed as inhibition of GSDMD -induced lethality; type: cell-based

For CC(C)[C@H](NC(=O)OCc1ccccc1)C(=O)N[C@@H](C)C(=O)N[C@@H](CC(=O)O)C(=O)CF (Cbz-Val-Ala-Asp-CH2F), the inhibition [1] was greater than 50% and the inhibition [2] was greater than 50%.
COc1ccccc1-c1cc2n(n1)Cc1ccc(NC(C)=O)cc1OC2 showed an INH [3] of 1 µM and an INH [4] of 5 µM.
With Cc1ccc(S(=O)(=O)/C=C/C#N)cc1 the inhibition [1] was greater than 50% and the inhibition [2] was greater than 50%.

From ChEMBL document CHEMBL4321782, “Gasdermin D (GSDMD) as a new target for the treatment of infection” (Medchemcomm, 2019)
